Measured values: patent US20240270692A1, “S(+) FORM OF 4-(2,4-DIFLUOROPHENYL)-2-(1H-INDOL-3-YL)-4-OXO-BUTANOIC ACID” (TOHOKU UNIVERSITY, priority 2021, published 2024)

What was measured:
[1] = Metabolism test using human liver microsomes (LC/HRMS); type: in vitro ADME; settings: incubated 37° C. for 1 hour
Experimental: The S(+) form or the R(−) form of MA5 was dissolved in acetonitrile (for LC-MS, manufactured by Kanto Chemical Co., Inc.) and each adjusted to 10 mM. 855 mg of sucrose (manufactured by FUJIFILM Wako Pure Chemical Corporation) was dissolved in 10 mL of water to prepare a 250 mM sucrose solution, and then by using this solution, a liquid containing 20 mg/mL human liver microsomes (8-donor-pool, manufactured by Sekisui XenoTech, LLC) was diluted 4-fold to prepare a 5 mg/mL human liver microsome suspension. In a 1 mL tube, 5 μL of three test solutions (sucrose solution containing 10 mM S(+) form of MA5, sucrose solution containing 10 mM R(−) form of MA5, or control Vehicle [sucrose solution]), 5 μL of NADPH Regenerating System Solution B (manufactured by Corning Incorporated), 100 μL of UGT Reaction Mix Solution B (manufactured by Corning Incorporated), and 275 μL of water were added to 50 μL of the human liver microsome suspension, and the resulting mixture was shaken for 30 seconds and preincubated at 37° C. for 5 minutes. After that, 25 μL of NADPH Regenerating System Solution A (manufactured by Corning Incorporated) and 40 μL of UGT Reaction Mix Solution A (manufactured by Corning Incorporated) were added, and the resulting mixture was shaken for 30 seconds and incubated at 37° C. for 1 hour. The reaction was stopped by adding 500 μL of an ice-cold acetonitrile solution containing 0.1% formic acid, and the resulting mixture was shaken for 30 seconds, sonicated for 10 minutes, and then centrifuged at 20,000×g at 4° C. for 10 minutes. 50 μL of the supernatant was collected in a fresh 1 mL tube, centrifugally concentrated at 2,000 rpm at room temperature (25 to 35° C.) for 30 minutes, and frozen at −80° C. […]
Q-Exactive (manufactured by Thermo Fisher Scientific Inc.) was used as an HRMS apparatus. […] Additional MS^2 data were measured in target MS^2 mode for both positive and negative ions. […]

HBlEpC cell line = assay: Cytotoxicity evaluation 1: viable cell level by WST-8 assay; type: cell-based, human; settings: 30 nM to 1 mM, cultured 48 hours
Experimental: Hereinafter, the present invention will be described more specifically with reference to Examples, but the technical scope of the present invention is not limited to these Examples. The INS-1E cell line was cultured in an incubator (37° C., 21% O2, 5% CO2) in the presence of RPMI-1640 Medium (manufactured by GIBCO) containing 11.1 mM glucose, 10% FBS, 1 mM sodium pyruvate, 10 mM HEPES, 2 mM glutamine, 50 μM β-mercaptoethanol, penicillin at 100 U/mL, and streptomycin at 100 μg/mL (hereinafter simply referred to as “RPMI-1640 Medium”). […]
An HBlEpC cell line (manufactured by Cell Application) was seeded in a 96-well plate at 2×10^3 cells per well, 0.1% DMSO, which is a solvent for the compounds, or various concentrations (30 NM, 100 nM, 300 nM, 1 μM, 3 μM, 10 μM, 30 μM, 100 μM, 300 μM, or 1 mM) of three compounds (racemic form of MA5, S(+) form of MA5, or R(−) form of MA5) were added to the HBlEpC culture medium, and the cells were cultured for 48 hours. […] The viable cell level (viable cell count level) after culture was measured by a WST-8 assay using Cell Count Reagent SF (manufactured by Nacalai Tesque, Inc.).

[2] = Physical properties: solubility in solvents; type: physicochemical

Compound	glucuronide conjugates (+C6H8O6 [+1.7 min, +2.6 min]) [1]	viability of the cells (viable cell level, OD450) (HBlEpC cell line)	solubility ([2]; in a 50% acetonitrile aqueous solution)	solubility ([2]; in a 50% methanol aqueous solution)	solubility ([2]; in acetone, acetonitrile, ethyl acetate, chloroform, dichloromethane, methanol, ethanol, and isopropanol)
O=C(C[C@@H](C(=O)O)c1c[nH]c2ccccc12)c1ccc(F)cc1F [R(−) form of MA5, 4-(2,4-difluorophenyl)-2-(1H-indol-3-yl)-4-oxo-butanoic acid]	detected	the viability of the cells was higher than when the HBlEpC cell line was cultured in the presence of the racemic form of MA5	–	–	–
O=C(C[C@H](C(=O)O)c1c[nH]c2ccccc12)c1ccc(F)cc1F [S(+) form of MA5, 4-(2,4-difluorophenyl)-2-(1H-indol-3-yl)-4-oxo-butanoic acid]	detected only at a level that was little or no different from the control	the viability of the cells was higher with the S(+) form of MA5 than with the R(−) form of MA5	slightly soluble	sparingly soluble	easily soluble
